“And” between values parts separate entries of the source, which are not always exact repeats. Identical values can stand only once. The source made the active and inactive calls.
Legend:
[1] = molecular target: T1, Cytochrome P450 1A2 (Homo sapiens, UniProt P05177);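 further: PubChem cytochrome P450 panel assay, CYP1A2 panel member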
T1 sequence (P05177 whole entry): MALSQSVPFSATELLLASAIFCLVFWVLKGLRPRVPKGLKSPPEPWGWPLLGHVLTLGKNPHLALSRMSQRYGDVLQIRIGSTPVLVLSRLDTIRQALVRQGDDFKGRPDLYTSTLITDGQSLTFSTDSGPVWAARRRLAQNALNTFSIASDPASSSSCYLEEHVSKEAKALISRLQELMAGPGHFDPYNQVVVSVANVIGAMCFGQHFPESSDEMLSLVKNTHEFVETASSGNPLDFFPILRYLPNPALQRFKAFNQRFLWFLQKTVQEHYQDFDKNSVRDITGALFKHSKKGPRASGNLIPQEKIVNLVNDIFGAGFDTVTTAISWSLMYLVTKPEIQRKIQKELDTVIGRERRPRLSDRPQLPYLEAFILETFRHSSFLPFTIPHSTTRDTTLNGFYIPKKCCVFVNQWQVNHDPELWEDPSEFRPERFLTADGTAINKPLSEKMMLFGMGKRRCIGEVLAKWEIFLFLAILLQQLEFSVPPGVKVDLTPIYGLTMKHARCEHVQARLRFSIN

[2] = molecular target: Cytochrome P450 2C19 (Homo sapiens, UniProt P33261); experiment: Cytochrome panel assay with activity outcomes. Panel member name: p450-cyp2c19 Compounds with AC50 equal or less than 10 uM are considered active; assay type: functional
[3] = molecular target: T2, Heat shock factor protein 1 (Mus musculus, UniProt P38532); experiment: decrease of HSF1-responsive luciferase luminescence – cell-based, NIH3T3, dose retest, confirmation (AID 2382); assay type: functional;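 further: NIH3T3 fibroblasts with HSF1-driven luciferase reporter stressed by proteasome inhibitor MG132; luminescence from HSF1-driven luciferase expression after 8 hours of MG132 stress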
T2 sequence (P38532 whole entry): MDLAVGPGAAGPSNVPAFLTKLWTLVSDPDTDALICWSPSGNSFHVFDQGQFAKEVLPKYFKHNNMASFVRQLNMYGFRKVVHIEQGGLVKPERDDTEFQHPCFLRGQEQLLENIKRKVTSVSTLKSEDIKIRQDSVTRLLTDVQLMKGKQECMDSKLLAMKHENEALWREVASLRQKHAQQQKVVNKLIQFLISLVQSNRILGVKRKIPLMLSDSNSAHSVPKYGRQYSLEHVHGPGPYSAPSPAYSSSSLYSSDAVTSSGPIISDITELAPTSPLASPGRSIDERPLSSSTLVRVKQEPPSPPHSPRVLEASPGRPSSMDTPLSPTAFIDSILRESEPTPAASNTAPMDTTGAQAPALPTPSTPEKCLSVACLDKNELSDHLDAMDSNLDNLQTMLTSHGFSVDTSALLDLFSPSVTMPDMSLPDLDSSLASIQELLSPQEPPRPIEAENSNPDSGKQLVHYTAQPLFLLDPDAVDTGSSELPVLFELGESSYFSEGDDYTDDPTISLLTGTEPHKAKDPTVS

[4] = Trypanosoma cruzi growth suppression in host cells – NIH3T3 host cells, beta-gal luminescence, confirmation (AID 2044); assay type: functional, cell-based;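 further: intracellular parasites grown in NIH/3T3 mouse fibroblasts as host cells; luminescent beta-galactosidase reporter signal from transgenic T. cruzi replicating inside host cells; inhibitors lower the luminescence signal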
[5] = NIH3T3 cell viability loss – ATP luminescence, mouse fibroblasts, counter-screen, dose response (AID 2010); assay type: functional, cell-based;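 further: cells exposed to compound for about 90 hours before reading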
[6] = alpha-synuclein stem-loop luciferase translation blockers – H4 neuroglioma cells, luminescence, confirmation (AID 1988); assay type: functional, cell-based
[7] = luciferase reporter signal suppression in cells – H4 neuroglioma cells, luminescence, dose response (AID 1990); assay type: functional, cell-based
[8] = Luminescence Cell-Based Dose Response HTS to Identify Inhibitors of 5'UTR Stem-Loop Driven Prion Protein mRNA Translation in H4 Neuroglioblastoma Cells. [Related pubchem assays: 1827 (Project Summary), 1813 (Primary HTS)]; assay type: functional
[9] = system: Streptococcus sp. 'group A'; experiment: Streptococcus pyogenes SK(-)GAS viability under kanamycin – luminescence, BacTiterGlo, confirmation, counter-screen for streptokinase expression inhibitor project, dose response (AID 1900); assay type: functional, organism-based
[10] = system: Streptococcus; experiment: GAS UMAA2166 growth inhibition – luminescence, BacTiterGlo, counter-screen for streptokinase expression inhibitor project, dose response (AID 1915); assay type: functional, organism-based;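 further: potency for reduction of bacterial viability or growth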
[11] = system: INS1; experiment: INS-1E survival protection against cytokine death – cell-based, luminescence, retest, dose response (AID 449756); assay type: functional; conditions: Rattus norvegicus;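 further: cell death triggered by IL-1 beta plus TNF-alpha plus IFN-gamma mixture; protective hits raise ATP signal compared with cytokine alone wells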

Chain of Cytochrome P450 2C19 (P33261 whole entry): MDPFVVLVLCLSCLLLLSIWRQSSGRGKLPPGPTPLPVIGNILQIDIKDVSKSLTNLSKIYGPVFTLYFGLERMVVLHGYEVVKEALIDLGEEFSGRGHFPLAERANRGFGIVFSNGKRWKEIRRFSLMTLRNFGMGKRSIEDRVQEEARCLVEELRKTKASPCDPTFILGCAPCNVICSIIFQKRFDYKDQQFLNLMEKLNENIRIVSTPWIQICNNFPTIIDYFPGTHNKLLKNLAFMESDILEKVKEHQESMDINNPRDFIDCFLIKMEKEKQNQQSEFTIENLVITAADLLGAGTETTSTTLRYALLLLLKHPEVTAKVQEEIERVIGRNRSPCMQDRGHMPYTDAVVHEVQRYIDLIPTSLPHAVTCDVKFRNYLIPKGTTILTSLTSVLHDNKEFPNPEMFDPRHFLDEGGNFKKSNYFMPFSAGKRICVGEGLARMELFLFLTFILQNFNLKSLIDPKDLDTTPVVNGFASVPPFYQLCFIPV

Cn1nnnc1SCc1ccccc1[N+](=O)[O-]
AC50 [1]: 15.8 µM (inconclusive)

CN1CCC(=C2c3ccccc3CC(=O)c3sccc32)CC1 [KETOTIFEN]
AC50 [2]: inconclusive

Cc1cc(=O)[nH]c2ccccc12
AC50 ([2]; read-out: AC50): 20 µM (inconclusive)

CN1CCN(C(=O)/C(=C\c2cccs2)NC(=O)c2ccco2)CC1
EC50 [3]: > 195 µM (not active)

COc1cccc(C2C(C(=O)c3cc4ccccc4o3)=C(O)C(=O)N2c2cc(C)on2)c1 (configuration not stated)
EC50 [3]: > 195 µM (not active)

COc1ccc(CNC(=O)c2cnc3scc(C)n3c2=O)cc1
EC50 [3]: > 195 µM (not active)

COC(=O)c1ccc(NC(=S)N(Cc2cccnc2)Cc2ccco2)cc1
EC50 [4]: 0.534 µM (active) | EC50 [5]: > 30 µM (not active)

Cc1ccc(C(=N)NOC(=O)CN(C)S(=O)(=O)c2ccc(C)cc2)cc1
EC50 [3]: > 195 µM (not active)

Cc1cccc(NC(=O)Cn2c(=O)n(Cc3ccco3)c(=N)c3c4c(sc32)COC(C)(C)C4)c1
EC50 [3]: > 195 µM (not active)

C[C@@H](C(=O)NCCc1c[nH]c2ccccc12)[C@@H]1C[C@@]1(C)[C@@H](NC(=O)OCc1ccccc1)c1ccccc1
AC50 [1]: 12.6 µM (inconclusive)

COC(=O)Nc1nc2cc(C(=O)c3ccc(F)cc3)ccc2[nH]1 [FLUBENDAZOLE]
EC50 [6]: < 0.1 µM (active) | EC50 [7]: 0.323 µM (active) | EC50 [8]: 0.225 µM (active)

C[C@@H](C(=O)NCc1ccccn1)[C@H]1C[C@]1(C)[C@H](NC(=O)OCc1ccccc1)c1ccccc1
AC50 [1]: 25.1 µM (inconclusive)

O=C1SCC(c2ccccc2)=NN1Cc1ccccc1
EC50 [3]: > 195 µM (not active)

Oc1[nH]c2ccc(Br)cc2c1N=NC(S)=Nc1ccc(F)cc1
EC50 [6]: 9.77 µM (active) | EC50 [7]: 15.5 µM (inconclusive) | EC50 [9]: 0.074 µM (active) | EC50 [4]: 1.63 µM (active) | EC50 [5]: 7.03 µM (active) | EC50 [10]: 1.39 µM (active) | EC50 [8]: > 120 µM (not active)

Cc1ccc(OCCCCNC2CCCCC2)c(C)c1
EC50 [4]: 1.62 µM (active) | EC50 [5]: > 60 µM (not active)

CCOc1ccc(C(=O)C[n+]2cccc3cc(C)ccc32)cc1
EC50 [4]: 4.12 µM (active) | EC50 [5]: > 30 µM (not active)

O=C(Cn1cnc([N+](=O)[O-])c1)Nc1cc(Oc2ccc(Cl)cc2Cl)cc([N+](=O)[O-])c1
EC50 [4]: 1.11 µM (active) | EC50 [5]: > 60 µM (not active)

Cc1ccc(Nc2nc(-c3cccnc3)cs2)cc1Cl
EC50 [4]: 2.13 µM (active) | EC50 [5]: > 60 µM (not active)

Cc1cc(Cl)ccc1OCCCC(=O)N1CCOCC1
EC50 [3]: > 195 µM (not active)

O=S(=O)(c1ccc(Cl)cc1)N1CCCCC1c1cccnc1 (configuration not stated)
EC50 [4]: 0.838 µM (active) | EC50 [5]: > 60 µM (not active)

CNc1cc(NS(=O)(=O)c2ccc(N)cc2)nc(NC)n1
AC50 [2]: inconclusive

Cc1ccc(-n2cc(CN3CCC(O)(c4ccccn4)CC3)c(-c3ccc(F)cc3)n2)cc1
EC50 [4]: 3.61 µM (active) | EC50 [5]: 9.48 µM (active)

O=C(Nc1cccnc1)c1cccnc1
AC50 [11]: 7.3 µM (active)

O=C(O)c1ccc(N2C(=O)CC(N3CCN(c4cccc(C(F)(F)F)c4)CC3)C2=O)cc1 (configuration not stated)
EC50 [3]: > 195 µM (not active)

CC(C)CCNC(=O)C1CCCN1C(=O)NC1CCCCC1 (configuration not stated)
EC50 [3]: > 195 µM (not active)

O=C(Nn1c(-c2ccncc2)nc2ccccc2c1=O)c1ccc(Br)cc1
EC50 [4]: 0.75 µM (active) | EC50 [5]: > 60 µM (not active)

COC(=O)[C@@H]1C[C@H]1[C@@H](NC(=O)c1cc(C)nn1C)c1ccccc1
AC50 ([2]; read-out: AC50): 39.8 µM (inconclusive)

COc1ccc(CN(C)C(=O)c2cc(S(=O)(=O)N3CCOCC3)ccc2N2CCCC2)cc1
EC50 [3]: > 195 µM (not active)

O=C(Nc1ccccc1)c1ccc(Nc2c([N+](=O)[O-])cc([N+](=O)[O-])c3ccccc23)cc1
EC50 [4]: 0.622 µM (active) | EC50 [5]: > 60 µM (not active)

CCOC(=O)c1c(-c2cccs2)csc1NC(=O)CN1CCOCC1
EC50 [6]: > 120 µM (not active) | EC50 [7]: 20.9 µM (active) | EC50 [8]: 80.6 µM (active)

COc1cccc(CNc2nc(SC)ncc2CO)c1
EC50 [6]: > 120 µM (not active) | EC50 [7]: 13.5 µM (active) | EC50 [8]: 27.1 µM (active)

COc1ccc(-c2nc(CN3CCCCC3c3cccnc3)c(C)o2)c(F)c1 (configuration not stated)
EC50 [4]: 1.45 µM (active) | EC50 [5]: > 60 µM (inconclusive)

Clc1ccccc1CN(Cc1ccccc1)c1[nH]cnc2ncnc1-2
EC50 [9]: 5.85 µM (active) | EC50 [10]: > 150 µM (not active)

COc1cccc(/C=C/C(=O)OCC(=O)Nc2nnc(-c3ccccc3)o2)c1
EC50 [9]: 6.11 µM (active) | EC50 [10]: 11.1 µM (active)

COC(=O)[C@@]1(Cc2ccc(OC)cc2)[C@H]2c3cc(C(=O)N4CCCC4)n(CCc4ccccn4)c3C[C@H]2CN1C(=O)c1ccccc1
AC50 ([2]; read-out: AC50): 25.1 µM (inconclusive)

CCOC(=O)c1ccc(Cl)c(NC(=O)c2ccc(-c3ccccc3)cc2)c1
AC50 [1]: 28.2 µM (inconclusive)

OC(CNCCc1ccccc1)COc1ccc(OCC(O)CNCCc2ccccc2)cc1 (configuration not stated)
EC50 [6]: 8.27 µM (active) | EC50 [7]: 9.08 µM (active) | EC50 [8]: > 120 µM (not active)

CCNC(=O)CNC(=O)c1nn(Cc2ccccc2)c(=O)c2ccccc12
EC50 [3]: > 195 µM (not active)

COc1ccc(NC(=O)N2CC3(CCN(C(=O)c4c(C)noc4C)CC3)C2)cc1
AC50 ([2]; read-out: AC50): 39.8 µM (inconclusive)

O=C(Nc1cc2ccccc2oc1=O)C1CCCCC1
AC50 ([2]; read-out: AC50): 28.2 µM (inconclusive) | AC50 [1]: 2.51 µM (inconclusive)

COc1cc(C(=O)Nc2ccc(-c3nc4cc(C)ccc4o3)c(O)c2)cc(OC)c1OC
EC50 [9]: 2.35 µM (active) | EC50 [10]: 1.85 µM (active)

CCN(c1ccccc1)c1cc(NC)[n+](C)c(C)n1
AC50 [1]: 31.6 µM (inconclusive)

COc1cccc(-c2nc(-c3ccc(NC(=O)c4cccnc4)cc3)no2)c1
AC50 [11]: 1.33 µM (active)

Cc1ccccc1Cn1ccc(NC(=O)c2cnn3c(C(F)(F)F)cc(-c4ccco4)nc23)n1
EC50 [3]: 19.1 µM (active)

CCc1ccc(C2=NN(CCC(=O)NC(C)CCc3ccccc3)C(=O)CC2)cc1 (configuration not stated)
EC50 [6]: 119 µM (active) | EC50 [7]: > 120 µM (not active) | EC50 [8]: 23.8 µM (active)

Fc1cc(F)c2nc(Nc3nc4c(F)cccc4s3)sc2c1
AC50 [11]: 4.34 µM (active)

CC(C)(O)C#Cc1ccc(CN2CCCC(CO)(Cc3cccc(Cl)c3)C2)cc1 (configuration not stated)
EC50 [4]: 0.455 µM (active) | EC50 [5]: > 60 µM (not active)

N=C(N)SCCSC(=N)N
AC50 [1]: 2 µM (inconclusive)

CC1(C)Oc2ccc(C#N)cc2[C@H](N2CCCC2=O)[C@H]1O [(-)-CROMAKALIM]
AC50 [1]: 10 µM (inconclusive) and 20 µM (inconclusive)

COc1cccc(NC(=O)c2oc3ccccc3c2NC(=O)c2ccc3c(c2)OCO3)c1
AC50 [1]: 6.31 µM (inconclusive)

CCc1ccc(CN2CCCC(C(=O)c3sccc3C)C2)o1 (configuration not stated)
EC50 [4]: 0.159 µM (active) | EC50 [5]: 16.9 µM (active)

Cc1cc2c(cc1C)NC(c1nc3ccccc3[nH]1)C1=C(O)CC(C)(C)CC1=N2 (configuration not stated)
AC50 ([2]; read-out: AC50): 1.78 µM (inconclusive) | AC50 [1]: 25.1 µM (inconclusive)

O=C1N=C2SCCN2/C1=C\c1c(Cl)cccc1Cl
AC50 ([2]; read-out: AC50): 28.2 µM (inconclusive)

CCOc1ccc(-n2c(=O)[nH]cc(C(=O)N3CCCc4ccccc43)c2=O)cc1
AC50 ([2]; read-out: AC50): 5.01 µM (inconclusive)

Reference: ChEMBL document CHEMBL1201862, “PubChem BioAssay data set” (2004)
